We go through 1 compound from PMC9241945 (Microbiology Spectrum, 2022).

The assay concerns the target T1, CTP synthase PyrG (Staphylococcus aureus, UniProt A6QIX1).
T1 construct: pyrG from S. aureus Newman in pET-28a, purified on Ni-NTA
Briefly: intrinsic fluorescence quenching titration. Format: binding.

T1 sequence (A6QIX1 whole entry): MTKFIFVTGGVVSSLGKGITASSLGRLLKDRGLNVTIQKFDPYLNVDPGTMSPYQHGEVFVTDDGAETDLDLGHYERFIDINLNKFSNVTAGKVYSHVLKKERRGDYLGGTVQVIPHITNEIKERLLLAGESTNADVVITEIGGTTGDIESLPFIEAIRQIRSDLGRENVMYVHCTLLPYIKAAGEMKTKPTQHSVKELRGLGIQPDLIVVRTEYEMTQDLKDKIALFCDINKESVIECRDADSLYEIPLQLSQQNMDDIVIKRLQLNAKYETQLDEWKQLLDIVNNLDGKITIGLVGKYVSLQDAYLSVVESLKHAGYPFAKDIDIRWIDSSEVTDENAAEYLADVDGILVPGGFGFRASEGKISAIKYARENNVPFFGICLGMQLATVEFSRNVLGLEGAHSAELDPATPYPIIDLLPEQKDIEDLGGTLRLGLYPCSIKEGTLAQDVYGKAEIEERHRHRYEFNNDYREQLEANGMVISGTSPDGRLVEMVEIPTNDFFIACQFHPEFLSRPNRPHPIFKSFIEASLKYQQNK

Consider `Nc1ncnc2c1ncn2[C@@H]1O[C@H](COP(=O)(O)OP(=O)(O)OP(=O)(O)O)[C@@H](O)[C@H]1O` [ATP], for which binding was put at a Kd of 320 µM.
